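Compound exposure: 48 hours, 5 concentrations, 96-well plates. TGI denotes the concentration required for complete inhibition of growth.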
Assays:
Experiment in all cases: DTP human tumour cell line panel, 48 h
HL-60(TB) leukemia = system: HL-60(TB) leukemia
UO-31 renal = system: UO-31 renal
RPMI-8226 leukemia = system: RPMI-8226 leukemia
CAKI-1 renal = system: CAKI-1 renal
ACHN renal = system: ACHN renal
SNB-75 CNS = system: SNB-75 CNS
OVCAR-5 ovarian = system: OVCAR-5 ovarian
U251 CNS = system: U251 CNS
MDA-N = system: MDA-N
DU-145 prostate = system: DU-145 prostate

Row | Compound | TGI (HL-60(TB) leukemia) [µM] | TGI (UO-31 renal) [µM] | TGI (RPMI-8226 leukemia) [µM] | TGI (CAKI-1 renal) [µM] | TGI (ACHN renal) [µM] | TGI (SNB-75 CNS) [µM] | TGI (OVCAR-5 ovarian) [µM] | TGI (U251 CNS) [µM] | TGI (MDA-N) [µM] | TGI (DU-145 prostate) [µM]
1 | Cc1ccc(C2=CC(=O)OC(C[P+](c3ccccc3)(c3ccccc3)c3ccccc3)(c3ccccc3)O2)cc1 (stereo not given) | 47.3 | 30.9 | 46.1 | 29.3 | 39.8 | 36.2 | 42.7 | 34.8 | 29.2 | 30.3
2 | C=C1C(=O)CC2C1CC(=O)/C(C)=C/CCC(C)(O)C2O (stereo not given) | 10.1 | 17.3 | > 37.9 | 3.37 | 4.92 | 28 | 27.7 | 40.6 | 2.86 | 19.7
3 | COc1ccc(C2c3cn[nH]c3CC3CCCCC32)cc1 (stereo not given) | 61.2 | 29.9 | 73.2 | 27.3 | 33.1 | 27.2 | 34.8 | 28.9 | 27.9 | 26.3
4 | COc1ccc(N2C(=O)CC(=O)N(NC(=O)C(C)Oc3ccccc3C)C2=S)cc1 (stereo not given) | > 100 | > 100 | > 100 | > 100 | > 100 | > 100 | > 100 | > 100 | > 100 | > 100
5 | C/C(C[n+]1ccccc1)=N\N=C(N)N | > 100 | > 100 | > 100 | > 100 | > 100 | > 100 | > 100 | > 100 | > 100 | > 100
6 | C[C@H](CCC(=O)O)[C@H]1CC[C@H]2[C@@H]3C(=O)C[C@@H]4C[C@H](O)CC[C@]4(C)[C@H]3C[C@H](O)[C@]12C | > 100 | > 100 | > 100 | > 100 | > 100 | > 100 | > 100 | > 100 | > 100 | > 100
7 | Cc1nc(C)c(C(=O)NNC(=O)C[N+](C)(C)C)cc1C(=O)NNC(=O)C[N+](C)(C)C | > 100 | > 100 | – | > 100 | > 100 | > 100 | > 100 | > 100 | > 100 | > 100
8 | N[C@@H](Cc1ccccc1)C(=O)N1CCC[C@@H]1P(=O)(Oc1ccccc1)Oc1ccccc1 | > 100 | > 100 | > 100 | > 100 | > 100 | > 100 | > 100 | > 100 | > 100 | > 100
9 | BrC(=C(c1ccc(OC2CCCCO2)cc1)c1ccc(OC2CCCCO2)cc1)c1ccccc1 (stereo not given) | > 100 | > 100 | > 100 | > 100 | – | > 100 | – | > 100 | > 100 | > 100
10 | O=C(CCn1ccnc1[N+](=O)[O-])NCCCn1ccnc1[N+](=O)[O-] | > 100 | > 100 | > 100 | > 100 | > 100 | > 100 | > 100 | > 100 | > 100 | > 100
11 | O=C1NC2c3c(I)sc(I)c3C(O)C2O1 (stereo not given) | > 100 | > 100 | > 100 | > 100 | > 100 | > 100 | > 100 | > 100 | > 100 | > 100
12 | CCOC(=O)c1cccc(N=Nc2nc[nH]c2/C=C/C(=O)OC)c1 | 53.4 | > 100 | > 100 | > 100 | > 100 | 58.7 | > 100 | > 100 | > 100 | > 100
13 | O=[N+]([O-])C(=C(Nc1ccccc1)Nc1ccccc1)C(Cl)=C(Cl)Cl | 27.7 | 39.6 | 65.9 | 33.4 | 30.7 | 36.5 | 41.8 | 35.3 | 27.2 | 34.5
14 | O=C(O)[C@H]1CCCN1CP(=O)(O)CN1CCC[C@@H]1C(=O)O | > 100 | > 100 | – | > 100 | > 100 | > 100 | > 100 | > 100 | > 100 | > 100
15 | CCN1CN(c2ccccc2)C2(CCN(CC3COc4ccccc4O3)CC2)C1=O (stereo not given) | 45.5 | 76.6 | 57.9 | > 100 | 71.2 | 94 | > 100 | > 100 | 6.54 | > 100
16 | C=CCn1c(=O)c(C(=O)Nc2nc(C34CC5CC(CC(C5)C3)C4)cs2)c(O)c2ccccc21 | 65.6 | > 100 | 87.5 | > 100 | > 100 | > 100 | > 100 | > 100 | > 100 | > 100
17 | NCCCN1c2ccccc2Sc2ccc(Cl)cc21 | > 10 | > 10 | > 10 | > 10 | > 10 | > 10 | > 9.34 | > 10 | > 5.98 | > 10
18 | Cc1cccc(C)c1NC(=O)C(Cc1c[nH]c2ccccc12)NC(=O)OCc1ccccc1 (stereo not given) | 44.3 | 32.9 | 55.3 | 50.2 | 53.2 | 48.2 | 51.6 | 47.2 | 54.6 | 51.6
19 | CCOC(=O)c1c(-c2ccc(O)c(OC)c2)c(C#N)c(=S)n(C2OC(CO)C(O)C(O)C2O)c1-c1ccccc1 (stereo not given) | > 100 | > 100 | > 100 | > 100 | > 100 | – | > 100 | > 100 | > 100 | > 100
20 | Cc1nn(-c2ccccc2)c2c1C(c1cc3ccccc3nc1Cl)NC(=O)N2 (stereo not given) | 52.6 | 28.2 | 61.4 | > 100 | 35.8 | 50.2 | 43.8 | 38.2 | 37.2 | > 100
21 | COC1=CC(=O)c2c(c(-c3nc(C)cs3)cn2C)C1=O | 9.44 | > 91.2 | > 22.1 | 21.3 | > 100 | 5.42 | > 43.9 | > 100 | 2.7 | 18.3

Reference: PubChem BioAssay (NCI)
